Results taken from article PMC6359144 (International Journal of Molecular Sciences, 2019).
Read-outs that look alike come from different tables or passages of the source.

How the values were obtained:
518A2 melanoma cells [1] = experiment: MTT assay, 518A2 melanoma cells; assay type: cell-based, human; details: for IC50: Homo sapiens, MTT, mean ± SD of four experiments; for effect on viability of 518A2 melanoma cells: concentrations as high as 50 µM; for IC50 after 72 h compared with IC50 after 24 h: 518A2 melanoma cells, fold lower
Procedure: (§1) HT-29 (ACC-299), HCT-116 (ACC-581) and DLD-1 (ACC-278) colon carcinoma, MCF-7 (ACC-115) breast carcinoma, KB-V1 (ACC-149), 518A2 (Department of Radiotherapy and Radiobiology, University Hospital Vienna) melanoma and Ea.Hy926 (ATCC no. CRL-2922) HUVEC derived endothelial hybrid cells line were grown in Dulbecco’s Modified Eagle Medium (DMEM; Biochrom), high glucose supplemented with 10% (v/v) fetal bovine serum (FBS; Biochrom.) and 1% (v/v) Antibiotic-Antimycotic solution (anti-anti; Thermo Scientific). HDFa human dermal fibroblasts (ATCC: PCS-201-012™) were grown in DMEM supplemented with 10% FBS, 1% anti-anti and 2 mM glutamine. The cells were incubated at 37 °C, 5% CO2, 95% humidified atmosphere. By repeated addition of topotecan or vinblastine at the maximum tolerated dose to the cell medium of MCF-7 and KB-V1 cells, the cells were rendered multidrug-resistant, indicated as MCF-7^Topo and KB-V1^Vbl, respectively. They were serially passaged following trypsinization by using 0.05% trypsin/0.02% EDTA (Biochrom). Mycoplasma contamination was routinely monitored, and only mycoplasma–free cultures were used.
(§2) MTT [3-(4,5-dimethylthiazol-2-yl)-2,5-diphenyltetrazolium bromide] (ABCR) was used to determine the cytotoxicity of test compounds as previously described. Briefly, HDFa human dermal fibroblasts and Ea.Hy926 endothelial hybrid cells (both 1 × 10^5 cells/mL, 100 µL/well), 518A2 melanoma, KB-V1^Vbl cervix carcinoma, MCF-7^Topo breast carcinoma, HT-29, DLD-1 and HCT-116 colon carcinoma (all 5 × 10^4 cells/mL, 100 µL/well) were grown in 96-well culture plates for 24 h. Then, various concentrations of the test compounds were added and the cells were incubated for 24-72 h at 37 °C. After adding 12.5 µL of a 0.5% MTT solution in PBS (final concentration 0.05%) to cell medium, microplates were incubated for 2 h and subsequently swiftly turned to discard the medium. The precipitate of formazan crystals was then dissolved in a 10% solution of SDS in DMSO containing 0.6% acetic acid. To ensure complete dissolution of formazan, microplates were incubated for at least 4 h at 37 °C. Finally, the absorbance at λ = 570 nm (formazan) and 630 nm (background) was measured using a microplate reader (Tecan F200). All experiments were carried out in quadruplicate and the percentage of viable cells was calculated as the mean ± SD with controls set to 100%. Selected graphs of MTT assays can be found in the Supporting Information (Figure S8).

[2] = test system: HT-29 colon carcinoma cells; experiment: MTT assay, HT-29 colon carcinoma cells; assay type: cell-based, human; details: for IC50: Homo sapiens, MTT; for effect on viability of HT-29 colon carcinoma cells: concentrations as high as 50 µM
Procedure: as §1, §2

[3] = test system: MCF-7^Topo breast adenocarcinoma cells; experiment: MTT assay, MCF-7^Topo breast carcinoma cells; assay type: cell-based; details: Homo sapiens, MCF7/Topo, read-out: IC50 MCF-7^Topo (72 h)
Procedure: as §1, §2

[4] = test system: Ea.Hy926 endothelial hybrid cells; experiment: MTT assay, Ea.Hy926 endothelial hybrid cells; assay type: cell-based; details: Homo sapiens, EA.hy 926, read-out: IC50 Ea.Hy926 (72 h)
Procedure: as §1, §2

[5] = test system: HCT-116 colon carcinoma cells; experiment: MTT assay, HCT-116 colon carcinoma cells; assay type: cell-based; details: Homo sapiens, HCT-116, read-out: IC50 HCT-116 (72 h)
Procedure: as §1, §2

[6] = test system: DLD-1 colon carcinoma cells; experiment: MTT assay, DLD-1 colon carcinoma cells; assay type: cell-based; details: Homo sapiens, DLD-1, read-out: IC50 DLD-1 (72 h)
Procedure: as §1, §2

[7] = test system: KB-V1^Vbl cervix carcinoma cells; experiment: MTT assay, KB-V1^Vbl cervix carcinoma cells; assay type: cell-based; details: Homo sapiens, read-out: IC50 KB-V1^Vbl (72 h)
Procedure: as §1, §2

[8] = test system: HCT-116 colon carcinoma cells; parameters: method as in earlier work; details: read-out: IC50 HCT-116 (72 h), MTT, and 34; cited from earlier work
[9] = test system: Ea.Hy926 endothelial hybrid cells; parameters: method as in earlier work; details: read-out: IC50 Ea.Hy926 (72 h), MTT, and 34; cited from earlier work
[10] = test system: HT-29 colon carcinoma cells; parameters: method as in earlier work; details: read-out: IC50 HT-29 (72 h), MTT, and 34; cited from earlier work
[11] = molecular target: T1, purified pig brain tubulin (Sus scrofa, UniProt P02550+P02554); experiment: Turbidimetric cell-free tubulin polymerization assay; assay type: biochemical; details: 10 µM, 340 nm
T1 construct: using purified pig brain tubulin; from tissue; host or cells: pig brain
Procedure: An amount of 50 µL of Brinkley’s buffer 80 (BRB80) supplemented with 20% glycerol and 3 mM GTP was given in a black 96-well half-area plate with clear bottom. Then, test compounds 4d–f (final concentration: 5 µM, or 10 µM) or vehicle (DMSO) were added. After adding 50 µL tubulin in BRB80 (10 mg/mL) was pipetted in the wells and immediately placed in a pre-heated microplate reader (Tecan). The polymerization was determined turbidimetrically at 37 °C by measuring the absorption at 340 nm for 120 min in intervals of 5 min. Values were normally distributed for each group (Shapiro–Wilk test, p > 0.05) and there was homogeneity of variance (Levene’s test, p > 0.05).

518A2 melanoma cells [12] = test system: 518A2 melanoma cells; parameters: method as in earlier work; details: read-out: IC50 518A2 (72 h), MTT, and 34; cited from earlier work
[13] = test system: MCF-7^Topo breast adenocarcinoma cells; parameters: method as in earlier work; details: read-out: IC50 MCF-7^Topo (72 h), MTT, and 34; cited from earlier work
[14] = 518A2, read-out: IC50 518A2 (72 h), 72 h
[15] = 518A2, 24 h, read-out: IC50 518A2 (24 h)
[16] = HT-29, read-out: IC50 HT-29 (72 h), 72 h
[17] = HT-29, 24 h, read-out: IC50 HT-29 (24 h)

T1 sequence (P02554 whole entry): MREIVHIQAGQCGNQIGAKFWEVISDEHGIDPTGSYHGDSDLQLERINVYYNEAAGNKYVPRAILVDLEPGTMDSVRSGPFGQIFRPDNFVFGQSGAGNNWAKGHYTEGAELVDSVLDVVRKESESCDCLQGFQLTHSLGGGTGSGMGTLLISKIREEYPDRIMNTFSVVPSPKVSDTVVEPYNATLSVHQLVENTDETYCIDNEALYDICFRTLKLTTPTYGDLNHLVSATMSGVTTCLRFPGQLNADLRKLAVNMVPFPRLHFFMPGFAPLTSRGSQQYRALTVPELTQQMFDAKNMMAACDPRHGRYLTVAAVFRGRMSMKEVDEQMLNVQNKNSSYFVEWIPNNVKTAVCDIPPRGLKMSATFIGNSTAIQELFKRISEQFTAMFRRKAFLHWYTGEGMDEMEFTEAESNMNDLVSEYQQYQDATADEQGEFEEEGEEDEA
T1 sequence (P02550 whole entry): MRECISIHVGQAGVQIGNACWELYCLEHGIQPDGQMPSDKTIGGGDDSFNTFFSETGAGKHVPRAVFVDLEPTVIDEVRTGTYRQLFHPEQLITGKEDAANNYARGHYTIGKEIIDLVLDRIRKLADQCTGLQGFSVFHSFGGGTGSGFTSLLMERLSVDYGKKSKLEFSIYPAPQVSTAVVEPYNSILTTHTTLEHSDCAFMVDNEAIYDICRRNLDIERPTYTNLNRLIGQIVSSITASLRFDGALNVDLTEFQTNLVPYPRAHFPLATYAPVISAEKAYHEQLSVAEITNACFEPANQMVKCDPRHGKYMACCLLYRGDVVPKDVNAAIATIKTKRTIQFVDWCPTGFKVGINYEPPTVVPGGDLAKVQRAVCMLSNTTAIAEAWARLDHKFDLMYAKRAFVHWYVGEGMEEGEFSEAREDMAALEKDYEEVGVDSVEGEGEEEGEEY

## CCOC(=O)CCCOc1cc(-c2ocnc2-c2cc(OC)c(OC)c(OC)c2)ccc1OC [3g, Ethyl 4-[1-methoxy-4-(4’-(3’’,4’’,5’’-trimethoxyphenyl)oxazol-5’-yl)-2-phenoxy]butyrate]
518A2 melanoma cells [1]; [14]
  IC50: > 50 µM
518A2 melanoma cells [1]; [15]
  IC50: > 100 µM
518A2 melanoma cells [1]
  effect on viability of 518A2 melanoma cells: did not affect the viability
[2]; [16]
  IC50: > 50 µM
[2]; [17]
  IC50: > 100 µM
[2]
  effect on viability of HT-29 colon carcinoma cells: did not affect the viability

## COc1ccc(-c2ocnc2-c2cc(Cl)c(OC)c(OC)c2)cc1OCCCC(=O)NO [4a, N-Hydroxy-4-[1-methoxy-4-(4’-(3’’-chloro-4’’,5’’-dimethoxyphenyl)oxazol-5’-yl)-2-phenoxy]butanamide]
518A2 melanoma cells [1]
  IC50 after 72 h compared with IC50 after 24 h: about eight-fold
518A2 melanoma cells [1]; [14]
  IC50: 0.11 ± 0.01 µM
518A2 melanoma cells [1]; [15]
  IC50: 1.3 ± 0.4 µM
[3]
  IC50: 0.66 ± 0.14 µM
[4]
  IC50: 0.0012 ± 0.0006 µM
other
  melting point: 171 to 172 °C
[2]; [16]
  IC50: 2.9 ± 0.3 µM
[2]; [17]
  IC50: 2.5 ± 0.4 µM
[5]
  IC50: 0.21 ± 0.01 µM
[6]
  IC50: 0.34 ± 0.01 µM
[7]
  IC50: 0.15 ± 0.02 µM

## COc1ccc(-c2ocnc2-c2cc(Cl)c(OC)c(OC)c2)cc1OCCCCC(=O)NO [4b, N-Hydroxy-5-[1-methoxy-4-(4’-(3’’-chloro-4’’,5’’-dimethoxyphenyl)oxazol-5’-yl)-2-phenoxy]pentanamide]
518A2 melanoma cells [1]; [14]
  IC50: 1 ± 0.1 µM
518A2 melanoma cells [1]; [15]
  IC50: 10.4 ± 5.1 µM
[3]
  IC50: 2.9 ± 0.8 µM
[4]
  IC50: 0.57 ± 0.07 µM
other
  melting point: 202 °C
[2]; [16]
  IC50: 3.6 ± 0.1 µM
[2]; [17]
  IC50: 4.2 ± 0.2 µM
[5]
  IC50: 2.4 ± 0.1 µM
[6]
  IC50: 3.2 ± 0.1 µM
[7]
  IC50: 4 ± 0.2 µM

## COc1ccc(-c2ocnc2-c2cc(Cl)c(OC)c(OC)c2)cc1OCCCCCC(=O)NO [4c, N-Hydroxy-6-[1-methoxy-4-(4’-(3’’-chloro-4’’,5’’-dimethoxyphenyl)oxazol-5’-yl)-2-phenoxy]hexanamide]
518A2 melanoma cells [1]; [14]
  IC50: 2.2 ± 0.3 µM
518A2 melanoma cells [1]; [15]
  IC50: 9.4 ± 1.4 µM
[3]
  IC50: 6.1 ± 0.7 µM
[4]
  IC50: 7.5 ± 0.5 µM
other
  melting point: 189 °C
[2]; [16]
  IC50: 4.9 ± 0.3 µM
[2]; [17]
  IC50: 4.6 ± 0.3 µM
[5]
  IC50: 6.5 ± 0.3 µM
[6]
  IC50: 3.3 ± 0.5 µM
[7]
  IC50: 18.4 ± 3.4 µM

## COc1ccc(-c2ocnc2-c2cc(OC)c(OC)c(OC)c2)cc1OCCCC(=O)NO [4g, N-Hydroxy-4-[1-methoxy-4-(4’-(3’’,4’’,5’’-trimethoxyphenyl)oxazol-5’-yl)-2-phenoxy]butanamide]
518A2 melanoma cells [1]
  IC50 after 72 h compared with IC50 after 24 h: about eight-fold
518A2 melanoma cells [1]; [14]
  IC50: 0.64 ± 0.07 µM
518A2 melanoma cells [1]; [15]
  IC50: 4.4 ± 0.1 µM
[3]
  IC50: 9.3 ± 0.8 µM
[4]
  IC50: 0.41 ± 0.04 µM
[2]; [16]
  IC50: 2.8 ± 0.2 µM
[2]; [17]
  IC50: 5 ± 0.2 µM
[5]
  IC50: 0.92 ± 0.12 µM
[6]
  IC50: 0.92 ± 0.04 µM
[7]
  IC50: 2.7 ± 0.2 µM

## COc1ccc(-c2ocnc2-c2cc(OC)c(OC)c(OC)c2)cc1OCCCCC(=O)NO [4h, N-Hydroxy-5-[1-methoxy-4-(4’-(3’’,4’’,5’’-trimethoxyphenyl)oxazol-5’-yl)-2-phenoxy]pentanamide]
518A2 melanoma cells [1]; [14]
  IC50: 5.6 ± 0.6 µM
518A2 melanoma cells [1]; [15]
  IC50: 21.6 ± 3.9 µM
[3]
  IC50: 39.6 ± 5.9 µM
[4]
  IC50: 3.4 ± 0.2 µM
other
  melting point: 118 to 120 °C
[2]; [16]
  IC50: 6.6 ± 0.6 µM
[2]; [17]
  IC50: 53.9 ± 12 µM
[5]
  IC50: 3.4 ± 0.4 µM
[6]
  IC50: 5.8 ± 0.4 µM
[7]
  IC50: 11.1 ± 1.6 µM

## COc1ccc(-c2ocnc2-c2cc(OC)c(OC)c(OC)c2)cc1OCCCCCC(=O)NO [4i, N-Hydroxy-6-[1-methoxy-4-(4’-(3’’,4’’,5’’-trimethoxyphenyl)oxazol-5’-yl)-2-phenoxy]hexanamide]
518A2 melanoma cells [1]; [14]
  IC50: 3.3 ± 0.3 µM
518A2 melanoma cells [1]; [15]
  IC50: 6.9 ± 2.5 µM
[3]
  IC50: 15.8 ± 1.4 µM
[4]
  IC50: 1.7 ± 0.1 µM
[2]; [16]
  IC50: 1.7 ± 0.1 µM
[2]; [17]
  IC50: 47.6 ± 10.6 µM
[5]
  IC50: 0.61 ± 0.07 µM
[6]
  IC50: 1.3 ± 0.1 µM
[7]
  IC50: 9 ± 0.3 µM

## COc1ccc(-c2ocnc2-c2cc(OC)c(OC)c(OC)c2)cc1OCCCC(=O)O [4j, 4-[1-Methoxy-4-(4’-(3’’,4’’,5’’-trimethoxyphenyl)oxazol-5’-yl)-2-phenoxy]butyric acid]
518A2 melanoma cells [1]; [14]
  IC50: > 50 µM
518A2 melanoma cells [1]; [15]
  IC50: > 100 µM
518A2 melanoma cells [1]
  effect on viability of 518A2 melanoma cells: did not affect the viability
[2]; [16]
  IC50: > 100 µM
[2]; [17]
  IC50: > 100 µM
[2]
  effect on viability of HT-29 colon carcinoma cells: did not affect the viability

## COc1ccc(/C=C\c2cc(OC)c(OC)c(OC)c2)cc1O [CA-4, Combretastatin A-4]
[8]
  IC50: 0.0026 ± 0.0002 µM
[9]
  IC50: 0.011 ± 0.002 µM
[10]
  IC50: 3.6 ± 0.1 µM
[11]
  inhibition of tubulin polymerization: significant inhibition of tubulin polymerization
518A2 melanoma cells [12]
  IC50: 0.018 ± 0.007 µM
[13]
  IC50: 0.5 ± 0.2 µM
